In brackets after ≈: the same amount, converted by molar mass.

Drawing on patent US10510981B2, “Organic light-emitting diode display panel, fabrication method, and electronic apparatus” (Shanghai Tianma AM-OLED Co., Ltd., priority 2017, dated 2019), this text covers solubility for eleven compounds.

A short description of the series: solubility of the compound adopted in the capping layer. The series is classed as physicochemical. As to conditions: thermodynamic from solid, saturated solution, liquid chromatography against a standard curve, solvent not given. The text has this: The test methods may include: • (1) measuring the solubility of the compound adopted in the capping layer, where the test method may include: testing samples with different concentrations of the compound by Ultimate3000 liquid chromatographic instrument manufactured by company “waters”, plotting a standard curve, then testing a saturated solution, and calculating the solubility by combining the standard curve; • (2) measuring light extraction efficiency by an UVISEB ellipsometer from HORIBA (China) Trading Co., Ltd.; and • (3) measuring lifetime by a LTS-1004DC life tester with from supplier ENC.

`CCCCc1ccc(N(c2ccc(C)c(C)c2)c2ccc(-c3ccc(N(c4ccc(CCCC)cc4)c4ccc(C)c(C)c4)c(C)c3)cc2C)cc1` came in with a solubility of 210 µg/mL (≈ 307 µM).

`Cc1ccc(N(c2ccc(C(C)C)cc2)c2ccc(-c3ccc(N(c4ccc(C(C)C)cc4)c4ccc(C)cc4C)c(C)c3)cc2C)c(C)c1` showed a solubility of 205 µg/mL (≈ 312 µM).

As for `CCCCc1ccc(N(c2ccc(C)cc2C)c2ccc(-c3ccc(N(c4ccc(CCCC)cc4)c4ccc(C)cc4C)c(C)c3)cc2C)cc1`, the solubility stood at 312 µg/mL (≈ 455 µM).

On to `Cc1ccc(N(c2ccc(-c3ccc(N(c4ccc(C(C)C)cc4)c4ccc(C)cc4C)cc3)cc2)c2ccc(C(C)C)cc2)c(C)c1`, for which the concentration in solution (solubility) was 309 µg/mL (≈ 491 µM). The compound `Cc1cc(-c2ccc(N(c3ccc(-c4ccccc4)cc3)c3ccc(-c4ccccc4)cc3)c(C)c2)ccc1N(c1ccc(-c2ccccc2)cc1)c1ccc(-c2ccccc2)cc1` gave a solubility of 211 µg/mL (≈ 257 µM).

For `CCc1ccc(-c2ccc(N(c3ccc(-c4ccc(CC)cc4)cc3)c3ccc(-c4ccc(N(c5ccc(-c6ccc(CC)cc6)cc5)c5ccc(-c6ccc(CC)cc6)cc5)c(C)c4)cc3C)cc2)cc1`, the concentration in solution (solubility) was 210 µg/mL (≈ 225 µM). With `CCCCc1ccc(N(c2ccc(-c3ccc(N(c4ccc(C)c(C)c4)c4ccc(CCCC)c(C)c4)cc3)cc2)c2ccc(C)c(C)c2)cc1C` the figure was 340 µg/mL (≈ 496 µM); with `C=Cc1ccc(N(c2ccc(CCCC)cc2)c2ccc(-c3ccc(N(c4ccc(CCCC)cc4)c4ccc(C=C)c(C)c4)c(C)c3)cc2C)cc1C`, 300 µg/mL (≈ 423 µM).

Regarding `C#Cc1ccc(N(c2ccc(CCCC)cc2)c2ccc(-c3ccc(N(c4ccc(CCCC)cc4)c4ccc(C#C)c(C)c4)c(C)c3)cc2C)cc1C`, the solubility came to 298 µg/mL (≈ 423 µM). With `CCCCc1ccc(N(c2ccc(-c3ccc(N(c4ccc(CCCC)cc4)C4CCCCC4)c(C)c3)cc2C)C2CCCCC2)cc1` [reference compound], the solubility was found to be 566 µg/mL (≈ 883 µM).

Compound `Cc1cc(-c2ccc(N(c3ccc(-c4ccc(-c5ccccc5)cc4)cc3)c3ccc(-c4ccc(-c5ccccc5)cc4)cc3)c(C)c2)ccc1N(c1ccc(-c2ccc(-c3ccccc3)cc2)cc1)c1ccc(-c2ccc(-c3ccccc3)cc2)cc1` [reference compound] returned a solubility of 430 µg/mL (≈ 382 µM).
